Consider two molecules from US9045415B2, “Targeting of EWS-FLI1 as anti-tumor therapy” (Georgetown University, priority 2006, dated 2015).

Molecules are shown by their SMILES.

Experiment [1] relates to neuroblastoma SKNAS cells. As to the kind of experiment: Monolayer cell growth, neuroblastoma. Format: cell-based. As to conditions: SK-N-AS, 72 hours continuous presence. The text has this:
FIGS. 8A-E show E9RP inhibits ESFT cell growth. In FIGS. 8A and 8B, E9RP is the peptide region of RHA (SEQ ID NO:29) fused to the Penetratin peptide (from the Antennapedia homeodomain; SEQ ID NO:34) and contains amino-terminal fluorescein (FITC). […] Neither lipids nor electricity were used for transduction of peptides into cells. Confocal microscopy identified peptide throughout cells with nuclear uptake. Nuclear uptake was confirmed by DAPI staining. […] Cell lines were placed in 96-well plates with either vehicle alone (●), or E9RP (10 μM) on days 0, 3 and 5 (▴). No lipid or other transfection method was utilized. This represents two experiments with similar results. FIG. 8D depicts dose response of ESFT 1 to either wild-type or single amino-acid mutant peptides. (▪) wild-type E9RP, (E9R (SEQ ID NO:29) fused to the Penetratin peptide (SEQ ID NO:34)), (▾)(E9RP (P2A peptide (SEQ ID NO:30) fused to the Penetratin peptide (SEQ ID NO:34)), (▴)E9RP (D5A peptide (SEQ ID NO:31) fused to the Penetratin peptide (SEQ ID NO:34)). Growth normalized to treating cells with the 16 aa Antp sequence alone (SEQ ID NO:34). FIG. 8E is a comparison of wild-type versus mutant peptides in ESFT and NB cells.
In FIG. 13A, recombinant EWS-FLI1 was treated with NSC635437 for 30 minutes. GST-RHA (630-1020) was added and the complexes were then precipitated with antibody to EWS-FLI1 and Protein G beads. Resolved complexes showing the immunoprecipitated complex control without compound are in lanes 3 (0.1% DMSO) and 5 (0.01% DMSO). […] ESFT TC32 (◯) and neuroblastoma SK-N-AS (▪) were grown for 72 hours in the continuous presence of NSC635437. Cells were incubated in MTT reagent for 4 hours and the dried precipitate was dissolved isopropanol and the absorbance read at 570 nm. Each cell line was standardized to the growth of the DMSO control.
FIG. 30 provides data to show E9R peptide prevents EWS-FLI1 binding to RHA with specific detrimental effects upon ESFT growth and transformation. […] Scale bar equals 20 μm. […] Only expression of EGFP-E9R in TC71 reduced anchorage independent growth. […] Scale bar equals 20 μm.

Experiment [2] relates to NFκB responsive promoter. The experiment can be described thus: NFκB responsive reporter in COS7 cells activated with PMA. Format: cell-based. As to conditions: after PMA. The protocol:
FIG. 38A provides data showing COST cells transfected with an NFκB reporter construct followed by stimulation with PMA. Cells were treated with YK-4-279 following PMA treatment. Cell lysates were analyzed for NFκB induced luciferase activity as standardized to LTR activated renilla luciferase.

Experiment [3] deals with A673 cells. As to the kind of experiment: YK-4-279 toxicity in shRNA-modified ESFT cells. Format: cell-based. As to conditions: for IC50: Homo sapiens. The procedure: FIG. 39A provides data showing HEC and HFK, non-transformed endocervical cells and keritinocytes, treated with YK-4-279 for 72 hours and assayed for viability using WST reduction. FIG. 39B provides data showing TC71 cells treated for 16 hours with YK-4-279 or doxorubicin. Lysates were assayed for cleavage of AMC-DEVD by induced caspase-3 and fluorescence was measured. FIG. 39C provides data showing that RHA reduced TC71 cells were more resistant to YK-4-279 treatment than wild-type cells. FIG. 39D provides data showing an shRNA tet-inducible expression vector stably transfected into A673 (ESFT) cells to reduce EWS-FLI1 levels. FIG. 39E provides data showing that EWS-FLI1 reduced A673 cells were more resistant to YK-4-279 treatment than wild-type cells.
shRNA (short hairpin RNA) against RHA was purchased from Open Biosystems (Huntsville, Ala.) Both virus production and purification were done according to Open Biosystems protocols. (For designing shRNA see McIntyre G. J. et al. “Design and cloning strategies for constructing shRNA expression vectors.” BMC Biotechnol. (2006) 6:1)
In order to further support for the target specificity of YK-4-279 toxicity upon ESFT cells, the levels of each of the critical proteins were reduced by using shRNA in A673 cells42. […] When EWS-FLI1 was reduced using shRNA, the IC50 increased 10-fold from 0.5 μM to approximately 5 μM (FIG. 39D, FIG. 39E).

Experiment [4] has as its system TC32. The experiment can be described thus: Nuclear fragmentation (DAPI), TC32. The class given is cell-based. As to conditions: 50 μM, 6 hours. The procedure:
(§1) Cells were treated for 24 hours with 10 μM YK-4-279. The Caspase-3 substrate DEVD-AMC was incubated with equal amounts of protein lysate and fluorescence from cleaved substrate measured in a fluorimeter. TC32 and non-transformed cells HEK-293, HFK, and HEC were treated for 6 hours with high dose (50 μM) YK-4-279. DAPI stained cells were photographed at 600× using inverted fluorescence microscope.

Experiment [5] deals with non-transformed HEK293 cells. The experiment can be described thus: Cell growth, HEK293. The class given is cell-based. The conditions noted are these: TC32 vs HEK293. The procedure: (§2) FIG. 33 provides data showing YK-4-279 is potent and specific inhibitor of ESFT. […] Cell number was measured by MTT or WST reduction after seven days in culture. […] FIG. 33D cell lines expressing EWS-FLI1 compared to non-EWS-FLI1 malignant cell lines following 3 days in culture to establish the IC50 using WST assay. […] Graph plots level of fluorescence in treated divided by untreated lysate. […] Scale bar equals 200 μm.

The subject of experiment [6] is EWS-FLI1. The experiment can be described thus: SPR displacement assay of E9R from EWS-FLI1. The class given is binding. The text has this:
FIG. 31 provides data showing a small molecule binding to EWS-FLI1 and displaces E9R from EWS-FLI1. […] Aromatic functionalization produced YK-4-279 a para-methoxy derivative of NSC635437. […] A FLI1 antibody complexed EWS-FLI1 and precipitated it from the solution.
An aromatic optimization strategy was used to design analogs to improve upon the activity of NSC635437.

Experiment [7] relates to non-EWS-FLI1 cancer cell lines and non-transformed cell lines (HFK, HEC, HEK293). As to the kind of experiment: Caspase-3 activity, non-EWS-FLI1 cancer and non-transformed cell lines. The class given is cell-based. As to conditions: 10 μM, 24 hours. The procedure:
as §2, §1

Experiment [8] relates to ES925. The experiment can be described thus: Cell growth, primary ESFT line ES925. Format: cell-based. As to conditions: Homo sapiens, 72 h; 3 days; read-out: anti-proliferative IC50. The procedure: as §2

For `O=C(CC1(O)C(=O)Nc2c(Cl)ccc(Cl)c21)c1ccc(Cl)cc1` (stereo not shown) [NSC635437, 4,7-Dichloro-3-[2-(4-chlorophenyl)-2-oxoethyl]-3-hydroxyl-1,3-dihydro-2H-indol-2-one], in experiment [1], the “cell growth (MTT)” value is recorded as “not neuroblastoma cell growth”.
On to `COc1ccc(C(=O)CC2(O)C(=O)Nc3c(Cl)ccc(Cl)c32)cc1` (stereo not shown) [YK-4-279, 4,7-Dichloro-3-hydroxy-3-[2-(4-methoxyphenyl)-2-oxoethyl]-1,3-dihydro-2H-indol-2-one], for which the “NFκB responsive promoter activity” value in experiment [2] was “did not affect the NFκB responsive promoter”. For the same molecule, in experiment [3], the “increase of IC50 when EWS-FLI1 was reduced” value stood at 10 fold. In addition, the 50% inhibitory concentration (IC50) in experiment [3] (A673, EWS-FLI1 reduced using shRNA) is roughly 5000 nM; in experiment [3] (A673, RHA reduced cells (shRNA)) it was greater than 10000 nM; in experiment [3] (A673, before EWS-FLI1 reduction) it was 500 nM; in experiment [3] (A673, control shRNA (targeting luciferase)), less than 1000 nM; in experiment [8], 1000 nM. For the same molecule, the “apoptosis (nuclear fragmentation)” value in experiment [4] is “significant apoptosis”. Besides, the “difference in IC50, ESFT cells compared to HEK293” value in experiment [5] turned out to be 10 fold. The results for the “binding of E9R to EWS-FLI1” value in experiment [6] (32 μM E9R with 10 μM YK-4-279) and in experiment [6] (64 μM E9R with 10 μM YK-4-279) were 5 R.U and 7 R.U, respectively. In addition, the “apoptosis (caspase-3 activation)” value in experiment [7] was “none”.
